Source: ChEMBL document CHEMBL5329208 (RSC Med Chem, 2023)

Assays:
[1] = system: Hepatitis B virus; assay: Antiviral activity against HBV infected human HePAD38 cells assessed as reduction of HBV DNA level with compound replacement for every 3 days and measured on day 6 by qPCR analysis; assay type: functional, organism-based
[2] = Selectivity index, ratio of CC50 for cytotoxicity against human HePAD38 cells assessed as reduction in cell viability to EC50 for antiviral activity against HBV infected human HePAD38 cells assessed as reduction of HBV DNA level; assay type: toxicity, cell-based; settings: read-out: Ratio CC50/EC50
[3] = Cytotoxicity against human HePAD38 cells assessed as reduction in cell viability by CCK-8 assay; assay type: toxicity, cell-based

For `CCOC(=O)C1=C(CN2CCN(C(C(=O)O)c3ccccc3)CC2)NC(c2nccs2)=NC1c1ccc(F)cc1Br` (centres undefined), the EC50 [1] was 2.69 µM, the selectivity ratio [2] was greater than 18.6 and the CC50 [3] was greater than 50 µM.

Work on `CCOC(=O)C1=C(CN2CCN(C(C(=O)O)c3cccc(C(F)F)c3)CC2)NC(c2nccs2)=NC1c1ccc(F)cc1Br` (centres undefined) yielded an EC50 [1] greater than 10 µM, a selectivity ratio [2] of less than 2.2 and a CC50 [3] of 22.4 µM.

Work on `CCOC(=O)C1=C(CN2CCN(C(C(=O)O)c3ccc(OC)c(OC)c3)CC2)NC(c2nccs2)=NC1c1ccc(F)cc1Br` (centres undefined) yielded an EC50 [1] greater than 10 µM and a CC50 [3] greater than 50 µM.

`CCOC(=O)C1=C(CN2CCN(C(C(=O)O)c3ccc(C)cc3)CC2)NC(c2nccs2)=NC1c1ccc(F)cc1Br` (centres undefined) showed an EC50 [1] of 8.48 µM, a selectivity ratio [2] of 2.6 and a CC50 [3] of 22.4 µM.

`CCOC(=O)C1=C(CN2CCN(C(C(=O)O)C3=CCCCC3)CC2)NC(c2nccs2)=NC1c1ccc(F)cc1Br` (centres undefined) showed an EC50 [1] of 0.84 µM, a selectivity ratio [2] of 34.8 and a CC50 [3] of 29.2 µM.

For `C#Cc1cccc(C(C(=O)O)N2CCN(CC3=C(C(=O)OCC)C(c4ccc(F)cc4Br)N=C(c4nccs4)N3)CC2)c1` (centres undefined), the EC50 [1] was greater than 10 µM, the selectivity ratio [2] was less than 2.2 and the CC50 [3] was 22.4 µM.

With `CCOC(=O)C1=C(CN2CCN(C(C(=O)O)c3ccccc3C)CC2)NC(c2nccs2)=NC1c1ccc(F)cc1Br` (centres undefined) the EC50 [1] was 0.58 µM, the selectivity ratio [2] was 30.2 and the CC50 [3] was 22.4 µM.

`CCOC(=O)C1=C(CN2CCN(C(C(=O)O)c3ccccc3OC)CC2)NC(c2nccs2)=NC1c1ccc(F)cc1Br` (centres undefined) showed an EC50 [1] of 2.35 µM, a selectivity ratio [2] of 21.3 and a CC50 [3] of 50 µM.

Work on `CCOC(=O)C1=C(CN2CCN(C(C(=O)O)c3cccc(O)c3)CC2)NC(c2nccs2)=NC1c1ccc(F)cc1Br` (centres undefined) yielded an EC50 [1] of 2.38 µM, a selectivity ratio [2] greater than 21 and a CC50 [3] greater than 50 µM.

`CCOC(=O)C1=C(CN2CCN(C(C(=O)O)c3ccoc3)CC2)NC(c2nccs2)=NC1c1ccc(F)cc1Br` (centres undefined) gave an EC50 [1] greater than 10 µM and a CC50 [3] greater than 50 µM.

For `CCOC(=O)C1=C(CN2CCN(C(C(=O)O)c3ccc(Br)cc3)CC2)NC(c2nccs2)=NC1c1ccc(F)cc1Br` (centres undefined), the EC50 [1] was 1.24 µM, the selectivity ratio [2] was 18 and the CC50 [3] was 22.4 µM.

With `C=Cc1ccc(C(C(=O)O)N2CCN(CC3=C(C(=O)OCC)C(c4ccc(F)cc4Br)N=C(c4nccs4)N3)CC2)cc1` (centres undefined) the EC50 [1] was 3.78 µM, the selectivity ratio [2] was 5.9 and the CC50 [3] was 22.4 µM.

For `CCOC(=O)C1=C(CN2CCN(C(C(=O)O)c3ccc(CC)cc3)CC2)NC(c2nccs2)=NC1c1ccc(F)cc1Br` (centres undefined), the EC50 [1] was 0.46 µM, the selectivity ratio [2] was 41.4 and the CC50 [3] was 22.4 µM.

`CCOC(=O)C1=C(CN2CCN(C(C(=O)O)c3ccccc3C#N)CC2)NC(c2nccs2)=NC1c1ccc(F)cc1Br` (centres undefined) gave an EC50 [1] of 5.36 µM, a selectivity ratio [2] of 9.3 and a CC50 [3] of 50 µM.

`CCOC(=O)C1=C(CN2CCN(C(C(=O)O)c3ccc(C=O)cc3)CC2)NC(c2nccs2)=NC1c1ccc(F)cc1Br` (centres undefined) gave an EC50 [1] of 3.87 µM, a selectivity ratio [2] greater than 12.9 and a CC50 [3] greater than 50 µM.

With `CCOC(=O)C1=C(CN2CCN(C(C(=O)O)c3ccsc3)CC2)NC(c2nccs2)=NC1c1ccc(F)cc1Br` (centres undefined) the EC50 [1] was 0.07 µM, the selectivity ratio [2] was 962 and the CC50 [3] was greater than 50 µM.

`CCOC(=O)C1=C(CN2CCN(C(C(=O)O)c3ccc(OC)cc3)CC2)NC(c2nccs2)=NC1c1ccc(F)cc1Br` (centres undefined) showed an EC50 [1] greater than 10 µM, a selectivity ratio [2] of less than 2.9 and a CC50 [3] of 29.2 µM.

Work on `CCOC(=O)C1=C(CN2CCN(C(C(=O)O)c3ccc(O)cc3)CC2)NC(c2nccs2)=NC1c1ccc(F)cc1Br` (centres undefined) yielded an EC50 [1] of 6.3 µM, a selectivity ratio [2] of 3.5 and a CC50 [3] of 22.4 µM.

`CCOC(=O)C1=C(CN2CCN(C(C(=O)O)c3ccc(F)cc3)CC2)NC(c2nccs2)=NC1c1ccc(F)cc1Br` (centres undefined) gave an EC50 [1] greater than 10 µM, a selectivity ratio [2] of less than 2.9 and a CC50 [3] of 29.2 µM.

Work on `CCOC(=O)C1=C(CN2CCN(C(C(=O)O)C3=CCCC3)CC2)NC(c2nccs2)=NC1c1ccc(F)cc1Br` (centres undefined) yielded an EC50 [1] of 0.5 µM, a selectivity ratio [2] greater than 100 and a CC50 [3] greater than 50 µM.

In the case of `CCOC(=O)C1=C(CN2CCN(C(C(=O)O)c3cccc4ccccc34)CC2)NC(c2nccs2)=NC1c1ccc(F)cc1Br` (centres undefined), the EC50 [1] is reported as 0.85 µM, the selectivity ratio [2] is reported as 26.3 and the CC50 [3] is reported as 22.4 µM.

For `CCOC(=O)C1=C(CN2CCN(C(C(=O)O)c3cccc(C)c3)CC2)NC(c2nccs2)=NC1c1ccc(F)cc1Br` (centres undefined), the EC50 [1] was 2.52 µM, the selectivity ratio [2] was 8.9 and the CC50 [3] was 22.4 µM.
